Experimental data taken from the supplement of paper PMC10331698.
± gives the standard deviation of the averaged measurements.

What was measured:
Experiment in all cases: level (log10 ratio to DMSO vehicle control); higher = higher biomarker level / cell amount than vehicle control
Details in all cases: in DMSO
[1] = compound: O=S(=O)(O)C(F)(F)C(F)(F)C(F)(F)C(F)(F)C(F)(F)C(F)(F)C(F)(F)C(F)(F)C(F)(F)C(F)(F)F [Sodium perfluorodecanesulfonate]
Experimental: (§1)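 BioMAP Diversity Plus panel of 12 human primary cell co-culture systems (3C, 4H, LPS, SAg, BT, BF4T, BE3C, CASM3C, HDF3CGF, KF3CT, MyoF, Mphg). Compounds were added 1 h before stimulation and left for 24 h (MyoF 48 h; BT 72 h for soluble read-outs or 6 d for IgG). Biomarkers were read by ELISA, cytotoxicity by SRB, PBMC viability and proliferation by Alamar Blue. Each well value was divided by the mean of 8 DMSO control wells on the same plate and log10 transformed; duplicate blinded samples were tested at 4 concentrations.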

[2] = compound: NS(=O)(=O)C(F)(F)C(F)(F)C(F)(F)C(F)(F)C(F)(F)C(F)(F)F [Perfluorohexanesulfonamide]
Experimental: as §1

[3] = compound: COC(=O)C(F)(F)C(F)(F)OC(F)(C(F)(F)F)C(F)(F)OC(F)=C(F)F [Methyl perfluoro(3-(1-ethenyloxypropan-2-yloxy)propanoate)]
Experimental: as §1

[4] = compound: O=S(=O)(Cl)C(F)(F)C(F)(F)C(F)(F)C(F)(F)C(F)(F)C(F)(F)C(F)(F)C(F)(F)F [Perfluoro-1-octanesulfonyl chloride]
Experimental: as §1

[5] = compound: O=S(=O)(F)C(F)(F)C(F)(F)C(F)(F)C(F)(F)C(F)(F)C(F)(F)C(F)(F)C(F)(F)F [Perfluorooctanesulfonyl fluoride]
Experimental: as §1

[6] = compound: FC(F)(F)C(F)(F)C(F)(F)C(F)(F)C(F)(F)C(F)(F)CC1CO1 [3-(Perfluorohexyl)-1,2-epoxypropane]
Experimental: as §1

Test System	level (log10) ([1]; 1500 nM)	level (log10) ([1]; 4400 nM)	level (log10) ([1]; 13000 nM)	level (log10) ([1]; 40000 nM)	level (log10) ([2]; 6700 nM)	level (log10) ([2]; 20000 nM)	level (log10) ([2]; 60000 nM)	level (log10) ([3]; 6700 nM)	level (log10) ([3]; 20000 nM)	level (log10) ([4]; 6700 nM)	level (log10) ([4]; 20000 nM)	level (log10) ([4]; 60000 nM)	level (log10) ([5]; 6700 nM)	level (log10) ([5]; 20000 nM)	level (log10) ([5]; 60000 nM)	level (log10) ([6]; 6700 nM)	level (log10) ([6]; 20000 nM)	level (log10) ([6]; 60000 nM)
LPS:CXCL8/IL-8	-0.022 ± 0.025	0.032 ± 0.018	0.0335 ± 0.054	-0.176 ± 0.016	-0.005 ± 0.0071	-0.0015 ± 0.013	-0.034 ± 0.0071	0.019 ± 0.0042	0.0355 ± 0.019	-0.005 ± 0.013	0.0425 ± 0.0092	0.159 ± 0.0057	0.012 ± 0.027	0.011 ± 0.0099	-0.0015 ± 0.005	-0.0205 ± 0.011	-0.0135 ± 0.021	0.0015 ± 0.035
BE3C:IL-1alpha	-0.007 ± 0.0085	0.007 ± 0.023	-0.0495 ± 0.0078	-0.149 ± 0.0092	-0.0195 ± 0.00071	-0.022 ± 0.013	-0.0885 ± 0.016	-0.0175 ± 0.005	-0.005 ± 0.011	0.015 ± 0.0042	0.0155 ± 0.0092	-0.523 ± 0.1	0.004 ± 0.0042	-0.0115 ± 0.013	-0.007 ± 0.016	-0.0215 ± 0.0021	-0.003	0 ± 0.0014
SAg:Proliferation	-0.0065 ± 0.0035	-0.006 ± 0.0042	-0.024 ± 0.034	-0.023 ± 0.035	0.0045 ± 0.0035	-0.016 ± 0.013	-0.0695 ± 0.019	-0.003 ± 0.018	0.0525 ± 0.057	0.0235 ± 0.044	0.0205 ± 0.04	0.0395 ± 0.036	-0.0275 ± 0.0035	-0.0095 ± 0.049	0.0025 ± 0.019	0.013 ± 0.014	-0.0105 ± 0.019	0.013 ± 0.051
BF4T:PAI-I	-0.0015 ± 0.0092	0.0175 ± 0.005	0.0125 ± 0.0035	0.021 ± 0.0071	0.002 ± 0.0099	0.003 ± 0.0057	-0.0115 ± 0.005	-0.016 ± 0.0085	-0.0175 ± 0.021	-0.001 ± 0.0085	-0.015 ± 0.0099	-0.17 ± 0.0078	0.004 ± 0.0014	-0.0005 ± 0.0035	0.02 ± 0.0085	0.003 ± 0.0085	0.007	0.007 ± 0.018
LPS:SRB	0.0025 ± 0.0021	-0.001 ± 0.0057	-0.0105 ± 0.00071	-0.02 ± 0.017	-0.012 ± 0.0071	-0.017 ± 0.0057	-0.0975 ± 0.029	-0.012	-0.0085 ± 0.0078	0.0035 ± 0.0035	0.005 ± 0.0028	-0.043 ± 0.023	-0.008 ± 0.0071	-0.0025 ± 0.0064	-0.002 ± 0.013	-0.0045 ± 0.0035	-0.003	-0.002 ± 0.0057
LPS:sPGE2	0.035 ± 0.02	0.006 ± 0.041	-0.009 ± 0.04	-0.123 ± 0.023	0.088 ± 0.014	0.13 ± 0.032	0.207 ± 0.046	-0.015 ± 0.021	0.0015 ± 0.029	0.0585 ± 0.0078	-0.02 ± 0.016	-0.272 ± 0.03	0.0045 ± 0.039	-0.0015 ± 0.005	-0.0265 ± 0.056	0.022 ± 0.0057	-0.0655 ± 0.0035	-0.047 ± 0.0099
BE3C:CD54/ICAM-1	0.0015 ± 0.029	-0.0075 ± 0.00071	0.034	0.0425 ± 0.011	-0.0105 ± 0.025	0.003 ± 0.0028	0.017 ± 0.013	-0.0205 ± 0.005	-0.017 ± 0.0014	-0.0045 ± 0.0021	0.036 ± 0.0071	-0.69 ± 0.11	-0.0035 ± 0.019	-0.0055 ± 0.0092	0.0045 ± 0.026	0.0035 ± 0.00071	0 ± 0.0071	-0.0005 ± 0.005
SAg:PBMC Cytotoxicity	0.008 ± 0.027	-0.002 ± 0.0071	-0.037 ± 0.0028	0.017 ± 0.0071	0 ± 0.05	0.0415 ± 0.021	0.121 ± 0.023	-0.0115 ± 0.025	0.028 ± 0.044	0.01 ± 0.025	0.0045 ± 0.016	0.067 ± 0.0085	-0.0155 ± 0.029	0.0105 ± 0.022	0.011 ± 0.027	0.01 ± 0.037	-0.0055 ± 0.011	0.025 ± 0.0071
BF4T:MMP-1	0.009 ± 0.013	-0.0095 ± 0.0078	0.001 ± 0.0014	0.0245 ± 0.005	0 ± 0.0014	-0.012 ± 0.0042	-0.018 ± 0.0014	0.0055 ± 0.019	0.0095 ± 0.0021	0.008 ± 0.016	0.025 ± 0.014	-0.042 ± 0.0071	-0.0075 ± 0.00071	-0.0115 ± 0.005	0.001 ± 0.0071	-0.003 ± 0.0057	0.0045 ± 0.0021	0.023 ± 0.027
LPS:CD141/Thrombomodulin	-0.0315 ± 0.0064	0.0015 ± 0.046	-0.021 ± 0.0071	0.071 ± 0.047	-0.0155 ± 0.0092	-0.017 ± 0.017	-0.0095 ± 0.028	-0.05 ± 0.0099	-0.071 ± 0.027	-0.035 ± 0.025	-0.028 ± 0.034	0.083 ± 0.014	0.0105 ± 0.025	0.0045 ± 0.0078	0.0055 ± 0.012	-0.0405 ± 0.0035	-0.038 ± 0.0099	-0.0545 ± 0.0064
BE3C:CXCL9/MIG	0.016 ± 0.0042	0.008 ± 0.0085	0.014 ± 0.0085	0.0005 ± 0.0092	-0.0025 ± 0.0064	-0.0005 ± 0.0078	-0.0065 ± 0.0078	-0.0035 ± 0.0035	-0.019 ± 0.0099	-0.0025 ± 0.00071	-0.004 ± 0.0042	-0.724 ± 0.11	0.0035 ± 0.005	-0.0025 ± 0.0064	0.007 ± 0.017	0.0095 ± 0.018	0.0185 ± 0.016	0.023 ± 0.0057
LPS:CD69	-0.028 ± 0.021	-0.045 ± 0.011	-0.0585 ± 0.00071	-0.16 ± 0.054	-0.009 ± 0.013	-0.061 ± 0.016	-0.169 ± 0.005	-0.0435 ± 0.0078	-0.053 ± 0.013	-0.0255 ± 0.069	-0.032 ± 0.0071	-0.047 ± 0.052	-0.019 ± 0.031	-0.0135 ± 0.0092	-0.0335 ± 0.011	-0.024 ± 0.013	-0.0225 ± 0.015	-0.0195 ± 0.0078
SAg:CD40	-0.0185 ± 0.032	-0.042 ± 0.025	-0.103 ± 0.055	-0.212 ± 0.055	-0.025 ± 0.017	-0.064 ± 0.0057	-0.172 ± 0.0064	-0.0045 ± 0.021	-0.0045 ± 0.081	0.002 ± 0.0071	-0.015 ± 0.0028	-0.078 ± 0.034	0.002 ± 0.0071	-0.003 ± 0.0071	-0.012 ± 0.0014	-0.008 ± 0.013	-0.0135 ± 0.012	-0.018 ± 0.013
